Test results from patent publication US12441695B2, “Substituted thiadiazinone dioxide and preparation method therefor, herbicidal composition, and application therefor” (Qingdao Kingagroot Chemical Compound Co., Ltd., priority 2019, dated 2025).

Assays:
[1] = tested on: monocotyledonous and dicotyledonous weeds; assay: Experiment on weeding effect in post-emergence stage (weeds); format: in vivo; conditions: 600 g/ha active ingredient plus water 450 kg/ha, 3 weeks after application, fresh weight control rate; for Amaranthus retroflexus activity level (growth control rate): fomesafen-resistant Amaranthus retroflexus
From the text: The activity level criteria for plant damage (i.e., growth control rate) are as follows: • Level 5: growth control rate is above 85%; • Level 4: growth control rate is greater than or equal to 60% and less than 85%; • Level 3: growth control rate is greater than or equal to 40% and less than 60%; • Level 2: growth control rate is greater than or equal to 20% and less than 40%; • Level 1: growth control rate is greater than or equal to […]; • Level 0: growth control rate is less than 5%.
(§1) The above growth control rates are fresh weight control rates.
(§2) (1) Experiment on weeding effect in post-emergence stage: monocotyledonous and dicotyledonous weed seeds and major crop seeds (wheat, corn, rice, soybean, cotton, oilseed rape, millet, sorghum) were placed in plastic pots filled with soil, then covered with 0.5-2 cm of soil, allowed to grow in a good greenhouse environment. After 2-3 weeks of sowing, the test plants were treated. The tested compounds of the present invention were respectively dissolved in acetone, then added with Tween 80, diluted with a certain amount of water to obtain a solution with a certain concentration, and sprayed with a spray tower onto the plants. After the application, the plants were cultured for 3 weeks in the greenhouse, and then the experimental results of the weeding were listed in Table 2.

[2] = tested on: major crops (wheat, corn, rice, soybean, cotton, oilseed rape, millet, sorghum); assay: Experiment on weeding effect in post-emergence stage (crops); format: in vivo; conditions: 600 g/ha active ingredient plus water 450 kg/ha, 3 weeks after application; for corn plant damage level (growth control rate): crop corn; for rice plant damage level (growth control rate): crop rice; for soybean plant damage level (growth control rate): crop soybean
Description: as §1
as §2, with “plants.” for “plants. After the application, the plants were cultured for 3 weeks in the greenhouse, and then the experimental results of the weeding were listed in Table 2.”

Row | SMILES | Amaranthus retroflexus activity level (growth control rate) [1] | Echinochloa crus-galli activity level (growth control rate) [1] | Setaria viridis activity level (growth control rate) [1] | corn plant damage level (growth control rate) [2] | rice plant damage level (growth control rate) [2] | soybean plant damage level (growth control rate) [2] | Digitaria sanguinalis activity level (growth control rate) [1]
1 | CC(=O)N1c2ccc(F)cc2C(=O)N(C(C)C)S1(=O)=O [Compound 62] | 5 (Level 5: growth control rate is above 85%) | 3 (Level 3: growth control rate is greater than or equal to 40% and less than 60%) | 3 (Level 3: growth control rate is greater than or equal to 40% and less than 60%) | 0 (Level 0: growth control rate is less than 5%) | 0 (Level 0: growth control rate is less than 5%) | 0 (Level 0: growth control rate is less than 5%) | –
2 | CC(C)OC(=O)N1c2ccc(F)cc2C(=O)N(C(C)C)S1(=O)=O [Compound 63] | 5 (Level 5: growth control rate is above 85%) | 4 (Level 4: growth control rate is greater than or equal to 60% and less than 85%) | 3 (Level 3: growth control rate is greater than or equal to 40% and less than 60%) | 0 (Level 0: growth control rate is less than 5%) | 0 (Level 0: growth control rate is less than 5%) | 0 (Level 0: growth control rate is less than 5%) | 3 (Level 3: growth control rate is greater than or equal to 40% and less than 60%)
3 | CCOC(=O)OC(C)N1c2ccc(F)cc2C(=O)N(C(C)C)S1(=O)=O (centres unmarked) [Compound 64] | 5 (Level 5: growth control rate is above 85%) | 4 (Level 4: growth control rate is greater than or equal to 60% and less than 85%) | 3 (Level 3: growth control rate is greater than or equal to 40% and less than 60%) | 0 (Level 0: growth control rate is less than 5%) | 0 (Level 0: growth control rate is less than 5%) | 0 (Level 0: growth control rate is less than 5%) | 3 (Level 3: growth control rate is greater than or equal to 40% and less than 60%)
4 | CC(C)N1C(=O)c2cc(F)cnc2NS1(=O)=O [Compound 75] | 4 (Level 4: growth control rate is greater than or equal to 60% and less than 85%) | 3 (Level 3: growth control rate is greater than or equal to 40% and less than 60%) | 3 (Level 3: growth control rate is greater than or equal to 40% and less than 60%) | 1 (Level 1: growth control rate is greater than or equal to 500 and less than 200%) | 1 (Level 1: growth control rate is greater than or equal to 500 and less than 200%) | – | –
5 | CC(C)N1C(=O)c2cc(F)cc(F)c2NS1(=O)=O [Compound 142] | 5 (Level 5: growth control rate is above 85%) | 5 (Level 5: growth control rate is above 85%) | 5 (Level 5: growth control rate is above 85%) | 1 (Level 1: growth control rate is greater than or equal to 500 and less than 200%) | 1 (Level 1: growth control rate is greater than or equal to 500 and less than 200%) | 1 (Level 1: growth control rate is greater than or equal to 500 and less than 200%) | 5 (Level 5: growth control rate is above 85%)
6 | CC(C)N1C(=O)c2cc(F)cc(Br)c2NS1(=O)=O [Compound 143] | 5 (Level 5: growth control rate is above 85%) | 4 (Level 4: growth control rate is greater than or equal to 60% and less than 85%) | 5 (Level 5: growth control rate is above 85%) | 1 (Level 1: growth control rate is greater than or equal to 500 and less than 200%) | 0 (Level 0: growth control rate is less than 5%) | 1 (Level 1: growth control rate is greater than or equal to 500 and less than 200%) | 5 (Level 5: growth control rate is above 85%)
7 | CC(C)N1C(=O)c2cc(F)cc(Cl)c2NS1(=O)=O [Compound 144] | 5 (Level 5: growth control rate is above 85%) | 5 (Level 5: growth control rate is above 85%) | 5 (Level 5: growth control rate is above 85%) | 1 (Level 1: growth control rate is greater than or equal to 500 and less than 200%) | 0 (Level 0: growth control rate is less than 5%) | 1 (Level 1: growth control rate is greater than or equal to 500 and less than 200%) | 5 (Level 5: growth control rate is above 85%)
8 | CC(C)N1C(=O)c2cc(F)cc(I)c2NS1(=O)=O [Compound 145] | 4 (Level 4: growth control rate is greater than or equal to 60% and less than 85%) | 4 (Level 4: growth control rate is greater than or equal to 60% and less than 85%) | 5 (Level 5: growth control rate is above 85%) | 1 (Level 1: growth control rate is greater than or equal to 500 and less than 200%) | 0 (Level 0: growth control rate is less than 5%) | 0 (Level 0: growth control rate is less than 5%) | 4 (Level 4: growth control rate is greater than or equal to 60% and less than 85%)
9 | CC(C)N1C(=O)c2cc(F)c(F)cc2NS1(=O)=O [Compound 146] | 5 (Level 5: growth control rate is above 85%) | 5 (Level 5: growth control rate is above 85%) | 5 (Level 5: growth control rate is above 85%) | 1 (Level 1: growth control rate is greater than or equal to 500 and less than 200%) | 0 (Level 0: growth control rate is less than 5%) | 1 (Level 1: growth control rate is greater than or equal to 500 and less than 200%) | 4 (Level 4: growth control rate is greater than or equal to 60% and less than 85%)
10 | CC(C)N1C(=O)c2cc(F)c(Cl)cc2NS1(=O)=O [Compound 147] | 3 (Level 3: growth control rate is greater than or equal to 40% and less than 60%) | – | – | 0 (Level 0: growth control rate is less than 5%) | 0 (Level 0: growth control rate is less than 5%) | – | –
11 | CC(=O)N1c2c(F)cc(F)cc2C(=O)N(C(C)C)S1(=O)=O [Compound 150] | 5 (Level 5: growth control rate is above 85%) | 5 (Level 5: growth control rate is above 85%) | 5 (Level 5: growth control rate is above 85%) | 1 (Level 1: growth control rate is greater than or equal to 500 and less than 200%) | 1 (Level 1: growth control rate is greater than or equal to 500 and less than 200%) | 1 (Level 1: growth control rate is greater than or equal to 500 and less than 200%) | 5 (Level 5: growth control rate is above 85%)
12 | CCOC(=O)OC(C)N1c2c(F)cc(F)cc2C(=O)N(C(C)C)S1(=O)=O (centres unmarked) [Compound 151] | 5 (Level 5: growth control rate is above 85%) | 5 (Level 5: growth control rate is above 85%) | 5 (Level 5: growth control rate is above 85%) | 1 (Level 1: growth control rate is greater than or equal to 500 and less than 200%) | 1 (Level 1: growth control rate is greater than or equal to 500 and less than 200%) | 1 (Level 1: growth control rate is greater than or equal to 500 and less than 200%) | 5 (Level 5: growth control rate is above 85%)
